Measurements: paper PMC12142043, “Cell-based high-content approach for SARS-CoV-2 neutralization identifies unique monoclonal antibodies and PI3K pathway inhibitors” (Frontiers in Cell and Developmental Biology, 2025)
Where a name gives a salt, the structure may show the parent alone.

System: SARS-CoV-2 (USA-WA1/2020) in Calu-3 cells
Format: cell-based
Conditions: for dsRNA signal, AU High: high dose (10 µM); for dsRNA signal, AU High / dsRNA signal, AU Low: Calu-3, 48 h; for dsRNA signal, AU Low: low dose (100 nM)

Compound	dsRNA signal, AU High	dsRNA signal, AU Low	Reduction of infection in representative images (Figure 4A)
CCOc1cc(N2CCC(O)CC2)ccc1Nc1ncc2c(n1)N(C)c1ccccc1C(=O)N2C [XMD8-92]	359.5 AU	30524.1 AU	
O=c1cc(-c2ccccc2)oc2c(O)c(O)ccc12 [7,8-Dihydroxyflavone]	9230.6 AU	39399.4 AU	
COc1ccc(/C=C(\C#N)c2cccnc2)cc1OC [RG 13022]	36154.5 AU	2414.3 AU	
O=C(O)c1ccc2c(c1)nc(Nc1cccc(Cl)c1)c1ccncc12 [CX-4945 (Silmitasertib)]	35326.5 AU	21811.4 AU	
CCCCCCCCCCCC(=O)OC[C@H](CO)OC(=O)CCCCCCCCCCC [1,2-Dilauroyl-sn-glycerol]	32229.3 AU	52450.9 AU	
c1ccc(-c2oc3ncnc(NC[C@@H]4CCCO4)c3c2-c2ccccc2)cc1 [AIM-100]	17272.0 AU	4414.3 AU	
Cc1ccc(C(=O)Nc2ccc(CN3CCN(C)CC3)c(C(F)(F)F)c2)cc1C#Cc1cnc2[nH]ncc2c1 [GZD824]	64275.0 AU	33439.8 AU	
O=C(O)/C=C/C(=O)O [Fumalic acid]	4691.7 AU	6874.3 AU	
Cc1ccc(-c2c(C(=O)CF)n(CCCO)c3ncnc(N)c23)cc1 [FMK]	36246.0 AU	14082.6 AU	
Cc1cc2c(F)c(Oc3ncnn4cc(OC[C@@H](C)O)c(C)c34)ccc2[nH]1 [Brivanib (BMS-540215)]	51042.4 AU	684.7 AU	
COc1cc(OC)c(C=C2C(O)=Nc3ccccc32)c(OC)c1 [IC261]	6564.9 AU	46952.8 AU	
2-D08	21678.5 AU	7689.9 AU	
COc1cc2c(N3CCN(C(=O)Nc4ccc(OC(C)C)cc4)CC3)ncnc2cc1OCCCN1CCCCC1.Cl [Tandutinib (MLN518) HCl]	42444.4 AU	13615.8 AU	
CC(C)(C)c1nc(-c2cccc(NS(=O)(=O)c3c(F)cccc3F)c2F)c(-c2ccnc(N)n2)s1.CS(=O)(=O)O [Dabrafenib Mesylate (GSK-2118436)]	27414.0 AU	0.0 AU	
Cc1c(C(=O)N2CCOc3ccc(-c4ccc(N)nc4)cc3C2)ccc(S(C)(=O)=O)c1F [XL388]	5203.5 AU	16443.4 AU	
O=C(Nc1cccc(Nc2nccc(Nc3cccc(C(F)(F)F)c3)n2)c1)C1CC1 [Aurora Kinase Inhibitor III]	2378.0 AU	11511.4 AU	
COc1cc(-c2cc(-c3cccc(O)c3)cnc2N)cc(OC)c1OC [K02288]	4456.5 AU	7061.1 AU	
C[C@@H]1CC[C@@]2(OC1)O[C@H]1C[C@H]3[C@@H]4CC=C5C[C@@H](O)CC[C@]5(C)[C@H]4CC[C@]3(C)[C@H]1[C@@H]2C [Diosgenin]	0.0 AU	2764.9 AU	
C[C@@H](Oc1ccc2[nH]nc(/C=C/c3cnn(CCO)c3)c2c1)c1c(Cl)cncc1Cl [LY2874455]	11432.5 AU	3320.6 AU	

Compound	dsRNA signal, AU High	dsRNA signal, AU Low	Reduction of infection in representative images (Figure 4A)
CNc1nc(Nc2cnn([C@H]3CCN(C4COC4)C[C@@H]3F)c2Cl)ncc1C(F)(F)F [GNE-9605]	40803.1 AU	41939.9 AU	
CCn1c2ccccc2c2cc(Nc3ccnc(NCCCN4CCOCC4)n3)ccc21 [EHop-016]	0.0 AU	44568.8 AU	
C[C@@H]1C(=O)O[C@H](C)[C@H]1C[C@@H](O)[C@](C)(O)[C@H]1CC[C@@]2(O)C3=CC(=O)[C@@H]4C[C@@H](O)[C@@H](O)C[C@]4(C)[C@H]3CC[C@]12C [Cyasterone]	81.6 AU	11248.2 AU	
O=C1NC(=O)/C(=C/c2ccc3nccc(-c4ccncc4)c3c2)S1 [GSK1059615]	832.8 AU	16639.6 AU	
Oc1ccc(/C=C/c2cc(O)cc(O)c2)cc1 [Resveratrol]	13503.5 AU	6902.6 AU	
O=C1NC(=O)/C(=C/c2cccc(C(F)(F)F)c2)S1 [SMI-4a]	0.0 AU	12244.4 AU	
COc1cc(N2CCC(N3CCN(C)CC3)CC2)ccc1Nc1ncnc(Nc2ccccc2S(=O)(=O)C(C)C)n1 [ASP3026]	11916.3 AU	27995.4 AU	
CN(C)C/C=C/C(=O)Nc1cc2c(Nc3ccc(F)c(Cl)c3)ncnc2cc1O[C@H]1CCOC1 [Afatinib dimaleate]	15371.8 AU	40279.2 AU	
Cc1cc(C)nc(NS(=O)(=O)c2ccc(NC(=S)NC(=O)COc3ccc(Br)cc3Cl)cc2)n1 [ZCL278]	9541.3 AU	41590.0 AU	
Cn1cc(-c2ccc3ncc(Cc4ccc5ncccc5c4)n3n2)cn1 [NVP-BVU972]	9035.4 AU	52705.1 AU	
O=c1cc(-c2ccc(O)cc2)oc2cc(O)cc(O)c12 [Apigenin]	1738.8 AU	15810.5 AU	
CC(C)(C)C(=O)Nc1ccc2c(c1)C(=O)C(=O)c1ccccc1-2 [SF1670]	30745.4 AU	12301.2 AU	
CCN1CCN(Cc2ccc(Nc3ncc(F)c(-c4cc(F)c5nc(C)n(C(C)C)c5c4)n3)nc2)CC1 [LY2835219 free base]	59180.8 AU	26611.9 AU	
NC(=S)N/N=C/c1ncccc1N [Triapine]	0.0 AU	17637.1 AU	
COc1cc(N2CCC(N3CCN(C)CC3)CC2)ccc1Nc1ncc(Cl)c(Nc2ccccc2S(=O)(=O)C(C)C)n1 [TAE684 (NVP-TAE684)]	41419.4 AU	4182.3 AU	
CCCCNc1ncc(C(=O)NCc2ccc(-n3ccnc3)cc2)c(NC2CCC(O)CC2)n1 (centres unmarked) [UNC2881]	446.4 AU	42094.2 AU	
C#Cc1cccc(Nc2ncnc3cc(OCCOC)c(OCCOC)cc23)c1 [Erlotinib Hydrochloride]	3624.7 AU	52457.7 AU	
CC(=O)NCCc1c[nH]c2ccc(O)cc12 [N-Acetylserotonin]	219.3 AU	53222.8 AU	
COC(=O)c1c2c(c3ccccc3c1O)OC(C)(C)C=C2 [Mollugin]	394.8 AU	5157.1 AU	

Compound	dsRNA signal, AU High	dsRNA signal, AU Low	Reduction of infection in representative images (Figure 4A)
Cc1c(F)cc(C(=O)NC2CC2)cc1-c1ccc(C(=O)NCC(C)(C)C)cn1 [Losmapimod, reference compound]			poor activity
COC(=O)C1=C(C)NC(C)=C(C(=O)O[C@@H]2CCCN(Cc3ccccc3)C2)[C@@H]1c1cccc([N+](=O)[O-])c1.Cl (racemic) [Benidipine HCl]	130.4 AU	31078.1 AU	
Cl.O=C(NC1CCNCC1)c1[nH]ncc1NC(=O)c1c(Cl)cccc1Cl [AT7519 Hydrochloride]	0.0 AU	18031.2 AU	
Cl.c1ccc2c(-c3cnn4cc(-c5ccc(N6CCNCC6)cc5)cnc34)ccnc2c1 [LDN193189 Hydrochloride]	42525.8 AU	24650.0 AU	
Nc1cccc(-c2cc3c(Oc4cccc(O)c4)ncnc3[nH]2)c1 [TWS119]	48959.2 AU	29417.1 AU	
O.O.O.O=C(O)c1ncccc1O.O=C(O)c1ncccc1O.[O]=[V] [VO-Ohpic trihydrate]	28838.2 AU	7631.3 AU	
O=C(O)c1ccc(Nc2ncc3c(n2)-c2ccc(Cl)cc2C(c2c(F)cccc2F)=NC3)cc1 [MLN8054]	4632.4 AU	9929.7 AU	
O=C(O)[C@H]1O[C@@H](Oc2cc3oc(-c4ccc(O)cc4)cc(=O)c3c(O)c2O)[C@H](O)[C@@H](O)[C@@H]1O [Scutellarin]	1769.9 AU	52840.4 AU	
c1cc(-c2cnn3cc(-c4ccc(OCCN5CCCCC5)cc4)cnc23)ccn1 [Dorsomorphin (Compound C)]	6395.6 AU	1963.8 AU	
CC(C)(C)c1ccc(S(=O)(=O)/C=C/C#N)cc1 [Bay 11-7085]	63723.6 AU	21705.2 AU	
Cc1c(NC(=O)c2ccc(C(C)(C)C)cc2)cccc1-c1cn(C)c(=O)c(Nc2ccc(C(=O)N3CCOCC3)cc2)n1 [CGI-1746]	34116.6 AU	18368.1 AU	
CC(C)N(CCC(=O)c1ccc2ccccc2c1)Cc1ccccc1.Cl [ZM 39923 HCl]	21395.1 AU	2858.2 AU	
O=C(O)C[C@H](O)C[C@H](O)/C=C/c1c(C2CC2)nc2ccccc2c1-c1ccc(F)cc1 [Pitavastatin Calcium]	16024.1 AU	23195.0 AU	
Oc1cc(O)cc(/C=C/c2ccc(O)c(O)c2)c1 [Piceatannol]	12025.1 AU	48262.2 AU	
Ginkgolide C	4330.9 AU	14963.6 AU	
N#Cc1ccc2[nH]c(O)c(-c3ccc(CN4CCOCC4)cn3)c2c1 [AZD1080]	30210.5 AU	12322.5 AU	
COc1cc(Oc2ccnc3cc(OC)c(OC)cc23)ccc1NC(=O)NC(C)c1nccs1 (centres unmarked) [Ki20227]	0.0 AU	13064.0 AU	
COc1cc2ncnc(Nc3cccc(Cl)c3)c2cc1OC [AG-1478]	1676.2 AU	67129.9 AU	
COc1cc(OC)c(/C=C/S(=O)(=O)Cc2ccc(OC)c(NCC(=O)O)c2)c(OC)c1 [Rigosertib (ON-01910,Estybon)]	14175.0 AU	4849.9 AU	
